Earlier results on one compound are cited in US20220211813A1, “METHODS FOR TREATMENT OF NIEMANN-PICK DISEASE TYPE C” (LOMA LINDA UNIVERSITY, priority 2019, published 2022).

The test system of the data set is IFN-γ. The settings on record: as described in Pododlin et al. J Pharmacol Exp Ther. 312(1):373-81, 2005.

SMILES strings stand for the structures.

`NC(=O)Nc1sc(-c2ccc(F)cc2)cc1C(N)=O` [TPCA-1]: the “blocks IFN-γ” value was “about 50%”.
